Experimental data as given in patent EP2322149A1, “Methods and compositions for the treatment of ischemia” (Universidad del Pais Vasco, priority 2009, dated 2011).
“Also recorded” adds a separate entry of the source. Where a name gives a salt, the structure may show the parent alone.

What was measured:
optic nerve = test: ATP release measurement (luciferin/luciferase) in isolated optic nerves after OGD; set-up: species or system rats; conditions: MFQ 1 µM, CBX 100 µM
Description: (§1) ATP levels were measured using a Luciferin/Luciferase assay kit (Invitrogen) after 1h normoxia or OGD in oligodendrocyte cultures and in isolated optic nerves according to the manufacturer's instructions. The luminescence was measured with a luminometer Synergy-HT (BioTek) with an integration time of 3 sec. Because ATP was measured in the culture medium and in the solution bathing optic nerves, the concentration of ATP at the extracellular surface, near the vicinity of the receptor was underestimated (Joseph et al., 2003. J Biol Chem 278:23331-23342). The limit of ATP detection was 1 nM and luminescence was linear with increasing ATP concentrations to 1000 nM. The total amount of ATP was calculated according to standard curves and ATP release was expressed in percentage vs control.
(§2) After 1h OGD at 37°C, the medium was replaced with fresh solution containing glucose and equilibrated with 95% O2, 5% CO2 and the nerves were incubated for another 2h at 37°C to simulate reperfusion.

[1] = molecular target: T1, P2X7 receptors in oligodendrocytes (Rattus norvegicus, UniProt Q64663); test: ATP-evoked inward currents in whole-cell clamped oligodendrocytes; assay type: cell-based, Sprague-Dawley rats; conditions: -70 mV; CBX 20 µM, MFQ 1 nM
T1 construct: ATP (1 mM)-evoked inward currents in whole-cell clamped oligodendrocytes at -70 mV; endogenous in cells; host or cells: primary rat optic nerve oligodendrocytes
T1 sequence (Q64663 1-595): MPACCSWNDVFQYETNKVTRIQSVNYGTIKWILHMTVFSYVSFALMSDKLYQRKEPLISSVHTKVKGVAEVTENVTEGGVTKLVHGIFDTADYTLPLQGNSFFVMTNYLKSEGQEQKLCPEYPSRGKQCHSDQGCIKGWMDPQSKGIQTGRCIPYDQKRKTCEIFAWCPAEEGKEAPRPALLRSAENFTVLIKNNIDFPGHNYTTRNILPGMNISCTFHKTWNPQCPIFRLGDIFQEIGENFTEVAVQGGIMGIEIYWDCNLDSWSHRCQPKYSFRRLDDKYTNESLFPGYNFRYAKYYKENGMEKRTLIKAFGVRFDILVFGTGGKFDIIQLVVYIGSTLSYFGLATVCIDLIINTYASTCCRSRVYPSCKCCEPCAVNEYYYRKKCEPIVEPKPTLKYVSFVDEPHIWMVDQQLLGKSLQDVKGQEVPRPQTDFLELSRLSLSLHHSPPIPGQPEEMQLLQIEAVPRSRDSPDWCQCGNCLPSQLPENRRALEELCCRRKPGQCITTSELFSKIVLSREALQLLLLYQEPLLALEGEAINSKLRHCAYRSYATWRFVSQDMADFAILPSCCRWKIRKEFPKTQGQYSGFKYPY
Description: Primary cultures of oligodendrocytes derived from optic nerves of 12 day-old Sprague-Dawley rats were obtained as previously described (Matute et al., 1997 Proc Natl Acad Sci U S A 94:8830-8835.).Cells were maintained at 37°C and 5% CO2 in a chemically defined medium (Matute et al., 1997 Proc Natl Acad Sci U S A 94:8830-8835.). After 2-4 days in vitro, cultures were composed of at least 98% 04/Ga1C^+ cells. No microglial cells were detected in these cultures. […] Cell death was determined 24h later using calcein-AM (Invitrogen) as previously described (Matute et al., 1997 Proc Natl Acad Sci U S A 94:8830-8835.). […] Calcein was used to quantify the number of cells within the reading field. Fluorescence was measured as above and values were plotted as the percentage of DCFDA/calcein red-orange fluorescence versus control. The changes in mitochondrial membrane potential were monitored with 5,5',6,6'-tetrachloro-1,1',3,3'-tetraethylbenzimidazolcarbocyanine iodide (JC-1; Molecular Probes). […] The changes in the membrane potential were calculated as the red (emission at 590)/green (emission at 520) ratio in each condition and results were normalized to control.
Whole cell recordings were performed at room temperature and at a holding membrane potential of -70 mV. […] Data were analyzed with Excel and Prism software.

[2] = test system: cultured optic nerve oligodendrocytes; test: ATP release measurement (luciferin/luciferase) in oligodendrocyte cultures after OGD; assay type: cell-based, Sprague-Dawley rats; conditions: 1h OGD in the presence of ARL67156; CBX 20 µM, FFA 100 µM, MFQ 1 nM (figure legend)
Description: (§3) Primary cultures of oligodendrocytes derived from optic nerves of 12 day-old Sprague-Dawley rats were obtained as previously described (Matute et al., 1997 Proc Natl Acad Sci U S A 94:8830-8835.).Cells were maintained at 37°C and 5% CO2 in a chemically defined medium (Matute et al., 1997 Proc Natl Acad Sci U S A 94:8830-8835.). After 2-4 days in vitro, cultures were composed of at least 98% 04/Ga1C^+ cells. No microglial cells were detected in these cultures. […] Cell death was determined 24h later using calcein-AM (Invitrogen) as previously described (Matute et al., 1997 Proc Natl Acad Sci U S A 94:8830-8835.). Antagonists were present during in vitro ischaemia and during the next 24h incubation period. […] To assay the levels of reactive oxygen species (ROS), cells were loaded with 40 µM 2',7'- dichlorodihyfluoresceindiacetate (DCFDA; Invitrogen) and 1 µM calcein red-orange (Molecular Probes) immediately after OGD. Calcein was used to quantify the number of cells within the reading field. Fluorescence was measured as above and values were plotted as the percentage of DCFDA/calcein red-orange fluorescence versus control. The changes in mitochondrial membrane potential were monitored with 5,5',6,6'-tetrachloro-1,1',3,3'-tetraethylbenzimidazolcarbocyanine iodide (JC-1; Molecular Probes). Immediately after OGD, cells were loaded with JC-1 (3 µM) at 37°C for 30 min. The changes in the membrane potential were calculated as the red (emission at 590)/green (emission at 520) ratio in each condition and results were normalized to control.
as §1

[3] = test system: optic nerve oligodendrocytes; test: Oxygen and glucose deprivation (OGD) cell death in oligodendrocyte cultures (calcein-AM); assay type: cell-based, Sprague-Dawley rats; conditions: 1h OGD, calcein 24h later; PPADS 100 µM, BBG 50 nM, CNQX 30 µM, APV 100 µM, apyrase 20 U/ml, ARL67156 100 µM, CBX 20 µM, FFA 100 µM, MFQ 1 nM
Description: as §3

optic nerves = test: Optic nerve ischaemia (OGD), tissue damage by LDH release; set-up: species or system rats; conditions: P28 rat optic nerves, 1h OGD + 2h reperfusion; PPADS 1 mM, BBG 50 nM, oATP 1 mM, apyrase 20 U/ml, MFQ 1 µM, CBX 100 µM, FFA 1 mM
Description: as §2

[4] = test system: optic nerve oligodendrocytes; test: Reactive oxygen species (DCFDA) after OGD in oligodendrocyte cultures; assay type: cell-based, Sprague-Dawley rats; conditions: 1 h OGD; BBG 50 nM, PPADS 100 µM
Description: (§4) Primary cultures of oligodendrocytes derived from optic nerves of 12 day-old Sprague-Dawley rats were obtained as previously described (Matute et al., 1997 Proc Natl Acad Sci U S A 94:8830-8835.).Cells were maintained at 37°C and 5% CO2 in a chemically defined medium (Matute et al., 1997 Proc Natl Acad Sci U S A 94:8830-8835.). After 2-4 days in vitro, cultures were composed of at least 98% 04/Ga1C^+ cells. No microglial cells were detected in these cultures. […] Cell death was determined 24h later using calcein-AM (Invitrogen) as previously described (Matute et al., 1997 Proc Natl Acad Sci U S A 94:8830-8835.). Antagonists were present during in vitro ischaemia and during the next 24h incubation period. […] Calcein was used to quantify the number of cells within the reading field. Fluorescence was measured as above and values were plotted as the percentage of DCFDA/calcein red-orange fluorescence versus control. The changes in mitochondrial membrane potential were monitored with 5,5',6,6'-tetrachloro-1,1',3,3'-tetraethylbenzimidazolcarbocyanine iodide (JC-1; Molecular Probes). […] The changes in the membrane potential were calculated as the red (emission at 590)/green (emission at 520) ratio in each condition and results were normalized to control.

[5] = test system: optic nerve oligodendrocytes; test: Whole-cell recording of ischaemic inward current in cultured oligodendrocytes (chemical ischaemia); assay type: cell-based, Sprague-Dawley rats
Description: After 2-4 days in vitro, cultures were composed of at least 98% 04/Ga1C^+ cells. No microglial cells were detected in these cultures. […] Cell death was determined 24h later using calcein-AM (Invitrogen) as previously described (Matute et al., 1997 Proc Natl Acad Sci U S A 94:8830-8835.). Antagonists were present during in vitro ischaemia and during the next 24h incubation period. […] Calcein was used to quantify the number of cells within the reading field. Fluorescence was measured as above and values were plotted as the percentage of DCFDA/calcein red-orange fluorescence versus control. […] Molecular Probes). […] The changes in the membrane potential were calculated as the red (emission at 590)/green (emission at 520) ratio in each condition and results were normalized to control. Whole cell recordings were performed at room temperature and at a holding membrane potential of -70 mV. Extracellular bath solution with a pH of 7.3 contained (in mM): […] Patch clamp pipettes (3-5 MΩ) were filled with internal solution at a pH of 7.3 containing (in mM): CsCI 140, CaC12 2, MgC12 2, HEPES 10, EGTA 11, Na-ATP 2. For electrophysiology monitoring, ischaemia was induced chemically by using the glycolytic blocker iodoacetate (1 mM) and the oxidative phosphorylation inhibitor antimycin (2.5 μM), and omitting glucose because recordings were performed in an open chamber where O2 can diffuse to the cells (Káradóttir et al., 2005). Recordings of ATP currents were performed in divalent cation-free extracellular solutions, obtained by omitting Ca^2+ and Mg^2+, to potentiate P2X-mediated responses (Matute et al., 1997 Proc Natl Acad Sci U S A 94:8830-8835.). […] Molecular Probes, Inc., Eugene, OR) in culture medium for 30 min at 37 °C. Experiments were carried out in a coverslip chamber continuously perfused with a buffer containing 20 mM HEPES, 2 mM CaC12, 10 mM glucose in HBSS at 1 ml/min. The perfusion chamber was mounted on the stage of a Zeiss inverted epifluorescence microscope (Axiovert 35), equipped with a 150 W xenon lamp Polychrome IV (TILL Photonics GMBH) and a Plan Neofluar 40x oil immersion objective (Zeiss, Germany). Cells were visualized with a high resolution digital B/W CCD camera (ORCA; Hamamatsu Photonics Iberica, Barcelona, Spain) and image acquisition and data analysis were carried out using the AquaCosmos software program (Hamamatsu Photonics Iberica). Images were acquired every 30 ms at 37°C and ischaemia was induced as above. […] At the end of the assay, in situ calibration was carried out with the successive addition of […] and 2M Tris/50 mM EGTA, pH 8.5. Data were analyzed with Excel and Prism software.

[6] = test system: optic nerve oligodendrocytes; test: Mitochondrial membrane potential (JC-1) after OGD in oligodendrocyte cultures; assay type: cell-based, Sprague-Dawley rats; conditions: 1 h OGD; BBG 50 nM, PPADS 100 µM
Description: as §4

[7] = test system: optic nerve oligodendrocytes; test: Ca2+ imaging (fura-2) of oligodendrocytes during chemical ischaemia; assay type: cell-based, Sprague-Dawley rats; conditions: chemical ischaemia; PPADS 100 µM, oATP 1 mM
Description: After 2-4 days in vitro, cultures were composed of at least 98% 04/Ga1C^+ cells. No microglial cells were detected in these cultures. […] Cell death was determined 24h later using calcein-AM (Invitrogen) as previously described (Matute et al., 1997 Proc Natl Acad Sci U S A 94:8830-8835.). Antagonists were present during in vitro ischaemia and during the next 24h incubation period. […] Calcein was used to quantify the number of cells within the reading field. Fluorescence was measured as above and values were plotted as the percentage of DCFDA/calcein red-orange fluorescence versus control. […] Molecular Probes). […] The changes in the membrane potential were calculated as the red (emission at 590)/green (emission at 520) ratio in each condition and results were normalized to control. Whole cell recordings were performed at room temperature and at a holding membrane potential of -70 mV. Extracellular bath solution with a pH of 7.3 contained (in mM): […] Patch clamp pipettes (3-5 MΩ) were filled with internal solution at a pH of 7.3 containing (in mM): CsCI 140, CaC12 2, MgC12 2, HEPES 10, EGTA 11, Na-ATP 2. […] Data were analyzed with Excel and Prism software.

[8] = test system: AMPA and kainate receptors; test: Glutamate receptor agonist (AMPA, kainate) induced oligodendrocyte death (calcein fluorescence); assay type: cell-based, Sprague-Dawley rats; conditions: AMPA (100 µM) + cyclothiazide (100 µM), or kainate (3 mM) + GYKI 53655 (50 µM); PPADS 100 µM, BBG 50 nM
Description: as §4

P2X6 = P2X6 (Homo sapiens, UniProt O15547); conditions: read-out: IC50 P2X6; cited from earlier work
P2X1 = molecular target: T2, P2X1 (Homo sapiens, UniProt P51575); conditions: read-out: IC50 P2X1; cited from earlier work
T2 sequence (P51575 1-399): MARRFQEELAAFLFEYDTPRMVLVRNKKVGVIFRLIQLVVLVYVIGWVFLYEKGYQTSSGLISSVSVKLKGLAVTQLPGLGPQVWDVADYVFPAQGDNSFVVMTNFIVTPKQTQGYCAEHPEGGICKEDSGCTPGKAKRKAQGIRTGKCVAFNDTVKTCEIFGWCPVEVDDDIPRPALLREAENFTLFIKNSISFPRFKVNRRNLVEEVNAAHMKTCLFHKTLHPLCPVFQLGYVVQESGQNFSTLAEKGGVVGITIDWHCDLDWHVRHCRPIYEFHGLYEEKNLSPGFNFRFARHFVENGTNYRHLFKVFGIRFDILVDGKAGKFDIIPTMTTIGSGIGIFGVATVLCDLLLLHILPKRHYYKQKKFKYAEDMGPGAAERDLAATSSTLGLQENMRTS

Chain of P2X6 (O15547 whole entry, species assumed): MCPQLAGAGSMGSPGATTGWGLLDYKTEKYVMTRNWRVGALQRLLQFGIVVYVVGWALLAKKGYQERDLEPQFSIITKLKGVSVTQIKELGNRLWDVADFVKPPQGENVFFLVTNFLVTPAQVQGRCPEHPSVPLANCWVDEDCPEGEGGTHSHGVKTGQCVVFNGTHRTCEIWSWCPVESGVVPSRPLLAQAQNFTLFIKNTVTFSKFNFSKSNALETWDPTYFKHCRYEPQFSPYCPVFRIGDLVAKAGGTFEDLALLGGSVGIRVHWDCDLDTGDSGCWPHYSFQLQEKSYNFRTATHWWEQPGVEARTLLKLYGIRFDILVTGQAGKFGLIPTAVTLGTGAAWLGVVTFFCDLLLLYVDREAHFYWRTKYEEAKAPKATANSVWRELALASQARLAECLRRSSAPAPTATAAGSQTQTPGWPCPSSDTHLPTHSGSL

Row | SMILES | ATP levels during OGD (optic nerve) | ATP (1 mM)-evoked inward currents [1] | ATP levels after OGD [2] | OGD-induced oligodendrocyte cell death [3] | ischaemia-induced damage to optic nerves (LDH release) (optic nerves) | generation of radical oxygen species (ROS) [4] | OGD currents after drug application versus OGD currents before drug application ([5]; after washing the antagonists out, average over BBG and PPADS, n= 15) [%] | ischaemic inward currents ([5]; chemical ischaemia (iodoacetate, antimycin, no glucose), -70 mV, PPADS 100 µM, oATP 1 mM, BBG 50 nM) | mitochondrial depolarization [6] | increase in [Ca2+]i caused by ischaemia [7] | glutamate receptor-induced oligodendrocyte death [8] | IC50 (P2X6) [µM] | IC50 (P2X1) [µM]
1 | CC1(C)[C@@H](OC(=O)CCC(=O)O)CC[C@]2(C)[C@H]3C(=O)C=C4[C@@H]5C[C@@](C)(C(=O)O)CC[C@]5(C)CC[C@@]4(C)[C@]3(C)CC[C@@H]12 [CBX] | reduced | not reduced | significantly reduced | inhibited | reduced; also recorded: attenuated | – | – | – | – | – | – | – | –
2 | Cc1nc(N=Nc2ccc(S(=O)(=O)O)cc2S(=O)(=O)O)c(COP(=O)(O)O)c(C=O)c1O [PPADS, tetrasodium salt of pyridoxalphosphate-6-azophenyl-2',4'-disulfonic acid] | – | – | – | significantly reduced | prevented; also recorded: reduced | prevented | 134 ± 32 | significantly reduced | prevented | significantly blocked; also recorded: significantly reduced | did not significantly inhibit | > 100 | 1 to 5
